Assay results from patent US8624035B2, “Functionalized cyanine having a silane linker arm, a method of preparing thereof and uses thereof” (Universita' Degli Studi di Torino, priority 2008, dated 2014).

Experiment: Photodegradation over time under excitation with laser light at 532 nm
Type: physicochemical
Conditions: after 350 minutes, FIG. 3
Procedure: The emission of nanoparticles is 15-folds higher than the emission of the solution. Moreover, the photodegradation of fluorescent nanoparticles over time was compared to the photodegradation of the cyanine in solution. […] It observed that the cyanine immobilized within the nanoparticle undergoes a 5% photodegradation after 350 minutes, whilst the cyanine dye in solution undergoes a 45% photodegradation within the same time.

photodegradation (percentage of emission compared to time zero): 45%
Structure (SMILES): CO[Si](CCCN1/C(=C/C=C/C2=[N+](CCC[Si](OC)(OC)OC)c3ccc(S(=O)(=O)[O-])cc3C2(C)C)C(C)(C)c2cc(S(=O)(=O)[O-])ccc21)(OC)OC.[K+] [Compound 1, 1-propyltrimethoxysilane-1′-propyltrimethoxysilane-3,3,3,3′-tetramethyl-5,5′-disulfonate-indomonocarbocyanine potassium salt]
